Experimental data from US10369160B2, “Methods of treating cancer” (Intercept Pharmaceuticals, Inc., priority 2016, dated 2019).

Assays:
[1] = tested on: fibroblast growth factor 15 (Fgf15); experiment: Ileal FXR target gene expression, Fgf15, in Mdr2^−/− mice; assay type: in vivo; conditions: Mdr2^−/− groups only (not FXR^−/−)
Source text: (§1) As expected, both INT-747 and INT-767 stimulated fibroblast growth factor 15 (Fgf15) and small heterodimer partner (Shp) gene expression in Mdr2^−/− groups only (FIGS. 7A and 7B).

[2] = tested on: small heterodimer partner (Shp); experiment: Ileal FXR target gene expression, Shp, in Mdr2^−/− mice; assay type: in vivo; conditions: Mdr2^−/− groups only (not FXR^−/−)
Source text: as §1

[3] = tested on: Cholesterol 7 alpha-hydroxylase (cyp7a1); experiment: Hepatic FXR target gene expression, Cyp7a1, in Mdr2^−/− mice; assay type: in vivo; conditions: Mdr2^−/− mice only (not FXR^−/−)
Source text: Cholesterol 7 alpha-hydroxylase (cyp7a1) is the rate limiting enzyme in the classical biosynthetic pathways which convert cholesterol into bile acids. Both INT-767 and INT-747 inhibited Cyp7a1 gene expression in Mdr2^−/− mice only (FIG. 8). The bile salt export pump (Bsep) is a membrane protein that uses energy of ATP hydrolysis to actively transport bile acid salts.

[4] = tested on: bile salt export pump (Bsep); experiment: Hepatic FXR target gene expression, Bsep, in Mdr2^−/− mice; assay type: in vivo
Source text: Cholesterol 7 alpha-hydroxylase (cyp7a1) is the rate limiting enzyme in the classical biosynthetic pathways which convert cholesterol into bile acids. […] The bile salt export pump (Bsep) is a membrane protein that uses energy of ATP hydrolysis to actively transport bile acid salts.

[5] = tested on: FXR^−/− mice; experiment: Hepatocarcinogenesis in FXR^−/− mice (tumors, LW/BW, ALT/AST, serum bile acids); conditions: for liver tumors found: diet 10 mg/kg for 15 months
Protocol: The effects of INT-747, INT-767, and control diet in Mdr2^−/− and FXR^−/− mice on the development of hepatocellular carcinoma were evaluated.
(§2) Mdr2^−/− and FXR^−/− mice were randomly divided into three experimental groups.
The mice were fed a specific rodent diet or a diet supplemented with INT-747, INT-767, or control diet for 15 months. All mice were housed under pathogen-free conditions in a temperature-controlled room (23° C.) on a 12-hour light/dark cycle and drank water ad libitum. […] After 16 months, the mice were sacrificed and serum, liver and intestine were collected. The total number of hepatic tumors was counted and the diameter of each tumor was measured.
(§3) • Mice (n=4) were fed control diet for 15 months. Group 2: INT-747 • Mice (n=8) were fed control diet supplemented with OCA at a dose of 10 mg/kg for 15 months. Group 3: INT-767 • Mice (n=15) were fed control diet supplemented with INT-767 at a dose of 10 mg/kg for 15 months.

[6] = tested on: Mdr2^−/− mice; experiment: Hepatocarcinogenesis in Mdr2^−/− mice (tumors, LW/BW, ALT/AST, serum bile acids)
Protocol: The effects of INT-747, INT-767, and control diet in Mdr2^−/− and FXR^−/− mice on the development of hepatocellular carcinoma were evaluated. INT-747 is a FXR agonist while INT-767 is a dual FXR/TGR5 agonist.
as §2
The mice were fed a specific rodent diet or a diet supplemented with INT-747, INT-767, or control diet for 15 months. […] After 16 months, the mice were sacrificed and serum, liver and intestine were collected. The total number of hepatic tumors was counted and the diameter of each tumor was measured.
as §3

[7] = target: T1, FXR (Homo sapiens, UniProt Q96RI1); experiment: Potency for FXR (INT-767 versus INT-747); conditions: greater than INT-747
T1 sequence (Q96RI1 1-486): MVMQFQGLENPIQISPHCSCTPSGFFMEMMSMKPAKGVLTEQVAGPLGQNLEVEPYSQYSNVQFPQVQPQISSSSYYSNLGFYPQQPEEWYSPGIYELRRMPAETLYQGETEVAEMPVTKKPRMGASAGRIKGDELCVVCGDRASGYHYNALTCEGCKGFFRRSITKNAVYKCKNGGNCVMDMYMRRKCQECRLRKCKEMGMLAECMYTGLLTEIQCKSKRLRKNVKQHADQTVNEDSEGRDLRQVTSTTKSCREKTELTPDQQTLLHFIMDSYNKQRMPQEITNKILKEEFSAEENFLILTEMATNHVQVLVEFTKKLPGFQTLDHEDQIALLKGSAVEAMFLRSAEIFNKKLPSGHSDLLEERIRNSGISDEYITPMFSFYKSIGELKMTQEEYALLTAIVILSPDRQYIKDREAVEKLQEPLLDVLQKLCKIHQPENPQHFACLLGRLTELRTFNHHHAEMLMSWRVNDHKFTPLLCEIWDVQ

| SMILES | ileal Fgf15 gene expression [1] | ileal Shp gene expression [2] | hepatic Cyp7a1 gene expression [3] | hepatic Bsep induction [4] | liver tumors found [5] | liver tumors found (appearance/size) ([6]; diet 10 mg/kg for 15 months) | tumors with a diameter larger than 5 mm ([6]; diet 10 mg/kg for 15 months) | potency for FXR relative to INT-747 [7] | ALT levels [5] | AST levels [5] | LW/BW ratio (liver weight/body weight) [5] | serum bile acid levels [5] | serum bile acid levels [6] | LW/BW ratio (liver weight/body weight) ([6]; compared to control and INT-747 treated mice) | hepatocellular carcinoma development (number of hepatic tumors) ([6]; diet 10 mg/kg for 15 months, compared to control) | ALT levels ([6]; vs control) | AST levels ([6]; vs control) |
| --- | --- | --- | --- | --- | --- | --- | --- | --- | --- | --- | --- | --- | --- | --- | --- | --- | --- |
| CC[C@H]1[C@@H](O)[C@@H]2[C@H](CC[C@]3(C)[C@@H]([C@H](C)CCC(=O)O)CC[C@@H]23)[C@@]2(C)CC[C@@H](O)C[C@@H]12 [INT-747, 6α-ethyl-3α,7α-dihydroxy-5β-cholan-24-oic acid] | stimulated | stimulated | inhibited | did not promote hepatic Bsep induction | several large liver tumors | clearly identifiable liver tumors | ~80% | – | – | – | – | – | – | – | – | – | – |
| CC[C@H]1[C@@H](O)[C@@H]2[C@H](CC[C@]3(C)[C@@H]([C@H](C)CCOS(=O)(=O)[O-])CC[C@@H]23)[C@@]2(C)CC[C@@H](O)C[C@@H]12.[Na+] [INT-767, 6α-ethyl-3α,7α,23-trihydroxy-24-nor-5β-cholan-23-sulphate sodium] | stimulated | stimulated | – | induced hepatic Bsep activation | several large liver tumors | minute tumors | – | about 10 fold | no difference | no difference | No difference | no reduction occurred | significantly reduced | significant reduction | clearly prevented hepatocellular carcinoma development | significantly reduced | significantly reduced |
| CC[C@H]1[C@@H](O)C2C3CC[C@H]([C@H](C)CCOS(=O)(=O)[O-])[C@@]3(C)CCC2[C@@]2(C)CC[C@@H](O)C[C@@H]12.[Na+] (stereo partly drawn) [INT-767, 6α-ethyl-3α,7α,23-trihydroxy-24-nor-5β-cholan-23-sulphate sodium] | – | – | inhibited | – | – | – | – | – | – | – | – | – | – | – | – | – | – |
